# Patent US9723834B2, “Composition containing a pyripyropene insecticide and a base” (BASF SE, priority 2010, dated 2017)
# What was measured:
# [1] = Storage stability of emulsion concentrates at 65° C. (chemical assay before and after storage); type: physicochemical; conditions: emulsion concentrate with addition of Stabilizer A, storage at 65° C. up to 2 weeks
# Procedure: The present invention further relates to a use of the base for increasing the stability of the pesticide of formulae I or II. The stability of the pesticide may be analyzed storage for 14 days at 65° C. An increase of the stability of the pesticide may be identified by analyzing the chemical recovery after said storage.
# Finally, all samples of the emulsion concentrates were stored at 65° C. up to 2 weeks, and chemical assay was determined before and after storage. The chemical stability results as well as initial formulation pH (measured at 1% formulation dilution in water at room temperature) were listed in Table 1.
# [2] = system: Tenebrio molitor L; conditions: WO 2004/060065; cited from earlier work
# [3] = system: Plutella xylostella L larvae; conditions: WO 2004/060065; cited from earlier work
# [4] = system: larvae of Helicoverpa zea; conditions: Applied and Environmental Microbiology (1995), 61(12), 4429-35; cited from earlier work
smiles,measurement,setting,value
C[C@]1(COC(=O)C2CC2)[C@@H]2C[C@H](O)[C@@]3(C)Oc4cc(-c5cccnc5)oc(=O)c4[C@H](O)[C@@H]3[C@@]2(C)CC[C@@H]1OC(=O)C1CC1 [Insecticide A],chemical stability of Insecticide A,[1],dramatically improved
"CC(=O)OC[C@@]1(C)[C@@H]2C[C@H](OC(C)=O)[C@@]3(C)Oc4cc(-c5cccnc5)oc(=O)c4[C@H](O)[C@@H]3[C@@]2(C)CC[C@@H]1OC(C)=O [Insecticide B, Pyripyropene A]",insecticidal activity against Tenebrio molitor L,[2],has insecticidal activity
same,insecticidal activity against Plutella xylostella L larvae,[3],has insecticidal activity
same,insecticidal activity against larvae of Helicoverpa zea,[4],has insecticidal activity
